Laboratory results published in patent publication US20200317660A1, “Quinazolinone Compound and Application Thereof” (LUOXIN PHARMACEUTICAL (SHANGHAI) CO., LTD., priority 2017, published 2020).

Assays:
PI3Kα = biological target: T1, PI3Kα (Homo sapiens, UniProt P42336); assay: In vitro test of enzyme activity (ADP-Glo lipokinase), PI3K alpha; type: biochemical; conditions: 40 μM ATP, 50 μM PIP2:3PS, 120 min
T1 construct: purchased Millipore 14-602-K
Method: (§1) 1. In Vitro Test of Enzyme Activity
(§2) The lipokinase reaction was carried out under the conditions of a suitable substrate and ATP, followed by two steps to detect the kinase activity with the ADP-Glo™ kit. The first step was terminating the kinase reaction, wherein the remaining ATP was completely removed and only ADP was left; the second step was adding kinase detection reagents to convert ADP to ATP, accompanied by luciferin/luciferase reaction. Finally, the output value of fluorescence value was converted into kinase activity.
(§3) Experimental materials and equipments:
(§4) 2. Kit: ADP-Glo™ Lipokinase and PIP2:3PS Kit (Promega # V1792)
(§5) The kit contains: 1 mM PIP2:3PS, 10× lipid dilution buffer, 1 M magnesium chloride, 10 mM ATP, 10 mM ADP, ADP-Glo reagent, detection buffer and detection substrate.
(§6) 3. Reaction plate: OptiPlate-384, white and transparent (PerkinElmer #6007299).
(§7) 1. 10× reaction buffer: 500 mM HEPES, pH 7.5, 500 mM NaCl, 9 mM MgCl2; BSA: 10% stock solution, homemade.
(§8) 2. Final test system conditions: 1× reaction system: 50 mM HEPES, 50 mM NaCl, 3 mM MgCl2, 0.01% BSA (freshly prepared on the day of the experiment), 1% DMSO (v/v)+/−compound
(§9) 3. Reaction system: 3 μL mixture of the enzyme and the substrate (1:1)+2 μL ATP/MgCl2 mixture+5 μL ADP-Glo reagent+10 μL detection reagent.
(§10) The detailed experimental procedures are as follows:
(§11) 1. Compound dilution: 50 nL 100×compound/DMSO was transferred to the test well plate with Echo. • For PI3Kα, the compound was diluted three-fold from the highest concentration of 0.111 mM for a total of 10 concentrations. • For PI3Kβ/PI3Kδ/PI3Kγ, the compound was three-fold diluted from the highest concentration of 1.11 mM for a total of 10 concentrations.
(§12) (1) The compound to be tested was prepared and 50 nL of 100 plus compound solution or DMSO was added to the corresponding well plate.
(§13) (2) 3.33 plate reaction buffer was prepared.
(§14) (3) 3.33 solution PIP2:3PS was prepared, PIP2:3PS was thawed for at least 1 minute before use.
(§15) (4) 2.5 mM containing 5.25 mM MgCl2 was prepared.
(§16) (5) 3.33 PI3Kα/PI3Kβ/PI3Kδ/PI3Kγ solution was prepared.
(§17) (6) The lipokinase solution and the PIP2:3PS solution were mixed in a volume ratio of 1:1.
(§18) (7) 3.33: lipokinase buffer and PIP2:3PS solution were mixed in a volume ratio of 1:1.
(§19) (8) 3 μL of buffer solution and PIP2:3PS were added to the first and the second columns of the well plate.
(§20) (9) 3 μL of the mixed solution of the enzyme and PIP2:3PS was added to the wells except the first and the second columns, centrifuged for 10 seconds (1000 rpm) and incubated at 23° C. for 20 minutes.
(§21) (10) 2 μL […] was added and well was shaken.
(§22) (11) The well plate was covered and shaken for about 30 s, then the well plate was incubated at 23° C. for 2 hours.
(§23) (12) 5 μL of ADP-Glo reagent containing 10 mM MgCl2 was added.
(§24) (13) The well plate was centrifuged at 1000 rpm for 10 seconds, and the well plate was then covered, shaken for about 30 seconds, and incubated at 23° C. for 60 minutes.
(§25) (14) 10 μL kinase detection reagent was added.
(§26) (15) The well plate was centrifuged at 1000 rpm for 10 seconds, and then incubated at 23° C. for 60 minutes.
(§27) (16) The fluorescence value was measured on the Envision instrument.

PI3Kβ = biological target: T2, PI3Kβ (Homo sapiens, UniProt P42338); assay: In vitro test of enzyme activity (ADP-Glo lipokinase), PI3K beta; type: biochemical; conditions: 40 μM ATP, 50 μM PIP2:3PS, 120 min
T2 construct: purchased Promega V1751
Method: as §1, §2, §3, §4, §5, §6, §7, §8, §9, §10, §11, §12, §13, §14, §15, §16, §17, §18, §19, §20, §21, §22, §23, §24, §25, §26, §27

T1 sequence (P42336 whole entry): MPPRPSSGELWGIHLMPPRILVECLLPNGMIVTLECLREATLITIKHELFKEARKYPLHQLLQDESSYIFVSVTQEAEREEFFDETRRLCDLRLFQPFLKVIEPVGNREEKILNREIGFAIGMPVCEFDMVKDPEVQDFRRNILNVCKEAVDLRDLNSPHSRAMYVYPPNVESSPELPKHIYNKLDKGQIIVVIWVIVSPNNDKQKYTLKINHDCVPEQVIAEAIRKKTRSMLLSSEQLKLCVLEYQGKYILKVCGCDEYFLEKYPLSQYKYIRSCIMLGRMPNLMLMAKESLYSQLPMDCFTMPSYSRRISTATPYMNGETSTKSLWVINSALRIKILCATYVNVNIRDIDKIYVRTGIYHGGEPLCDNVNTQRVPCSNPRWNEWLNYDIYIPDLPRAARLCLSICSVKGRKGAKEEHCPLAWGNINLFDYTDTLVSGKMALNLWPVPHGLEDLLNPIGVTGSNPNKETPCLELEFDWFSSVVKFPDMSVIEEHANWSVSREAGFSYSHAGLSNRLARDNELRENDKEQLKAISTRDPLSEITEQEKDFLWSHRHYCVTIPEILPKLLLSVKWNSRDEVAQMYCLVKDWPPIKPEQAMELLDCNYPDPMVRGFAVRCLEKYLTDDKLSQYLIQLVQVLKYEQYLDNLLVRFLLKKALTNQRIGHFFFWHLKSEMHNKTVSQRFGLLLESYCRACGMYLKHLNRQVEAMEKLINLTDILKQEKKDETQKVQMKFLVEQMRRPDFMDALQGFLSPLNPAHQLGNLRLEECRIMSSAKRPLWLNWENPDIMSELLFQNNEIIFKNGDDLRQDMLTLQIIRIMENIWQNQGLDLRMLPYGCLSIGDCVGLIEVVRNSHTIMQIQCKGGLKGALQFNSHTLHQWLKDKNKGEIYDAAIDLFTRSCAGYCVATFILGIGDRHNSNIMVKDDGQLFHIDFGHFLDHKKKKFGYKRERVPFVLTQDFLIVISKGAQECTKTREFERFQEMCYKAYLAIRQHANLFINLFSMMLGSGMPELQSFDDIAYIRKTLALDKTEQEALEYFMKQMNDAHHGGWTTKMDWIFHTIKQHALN
T1 sequence (P27986 whole entry partner): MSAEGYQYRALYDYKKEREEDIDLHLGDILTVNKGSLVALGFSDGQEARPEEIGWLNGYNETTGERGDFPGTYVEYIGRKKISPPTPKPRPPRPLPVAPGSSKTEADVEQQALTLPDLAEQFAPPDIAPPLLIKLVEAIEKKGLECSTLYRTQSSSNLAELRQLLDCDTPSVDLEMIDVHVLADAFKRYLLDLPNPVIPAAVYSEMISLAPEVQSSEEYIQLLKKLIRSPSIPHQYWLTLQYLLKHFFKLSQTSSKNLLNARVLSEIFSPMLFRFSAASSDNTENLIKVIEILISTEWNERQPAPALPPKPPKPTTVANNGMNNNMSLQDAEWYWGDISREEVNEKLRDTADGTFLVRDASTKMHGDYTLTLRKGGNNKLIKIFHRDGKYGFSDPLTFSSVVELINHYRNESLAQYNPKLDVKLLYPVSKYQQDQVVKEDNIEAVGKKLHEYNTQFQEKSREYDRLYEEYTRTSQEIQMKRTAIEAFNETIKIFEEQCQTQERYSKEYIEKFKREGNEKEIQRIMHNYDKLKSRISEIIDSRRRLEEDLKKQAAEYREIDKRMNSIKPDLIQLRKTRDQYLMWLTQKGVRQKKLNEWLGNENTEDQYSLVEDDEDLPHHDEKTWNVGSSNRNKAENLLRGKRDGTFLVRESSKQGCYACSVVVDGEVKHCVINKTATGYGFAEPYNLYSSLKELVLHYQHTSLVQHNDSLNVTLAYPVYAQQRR
T2 sequence (P42338 whole entry): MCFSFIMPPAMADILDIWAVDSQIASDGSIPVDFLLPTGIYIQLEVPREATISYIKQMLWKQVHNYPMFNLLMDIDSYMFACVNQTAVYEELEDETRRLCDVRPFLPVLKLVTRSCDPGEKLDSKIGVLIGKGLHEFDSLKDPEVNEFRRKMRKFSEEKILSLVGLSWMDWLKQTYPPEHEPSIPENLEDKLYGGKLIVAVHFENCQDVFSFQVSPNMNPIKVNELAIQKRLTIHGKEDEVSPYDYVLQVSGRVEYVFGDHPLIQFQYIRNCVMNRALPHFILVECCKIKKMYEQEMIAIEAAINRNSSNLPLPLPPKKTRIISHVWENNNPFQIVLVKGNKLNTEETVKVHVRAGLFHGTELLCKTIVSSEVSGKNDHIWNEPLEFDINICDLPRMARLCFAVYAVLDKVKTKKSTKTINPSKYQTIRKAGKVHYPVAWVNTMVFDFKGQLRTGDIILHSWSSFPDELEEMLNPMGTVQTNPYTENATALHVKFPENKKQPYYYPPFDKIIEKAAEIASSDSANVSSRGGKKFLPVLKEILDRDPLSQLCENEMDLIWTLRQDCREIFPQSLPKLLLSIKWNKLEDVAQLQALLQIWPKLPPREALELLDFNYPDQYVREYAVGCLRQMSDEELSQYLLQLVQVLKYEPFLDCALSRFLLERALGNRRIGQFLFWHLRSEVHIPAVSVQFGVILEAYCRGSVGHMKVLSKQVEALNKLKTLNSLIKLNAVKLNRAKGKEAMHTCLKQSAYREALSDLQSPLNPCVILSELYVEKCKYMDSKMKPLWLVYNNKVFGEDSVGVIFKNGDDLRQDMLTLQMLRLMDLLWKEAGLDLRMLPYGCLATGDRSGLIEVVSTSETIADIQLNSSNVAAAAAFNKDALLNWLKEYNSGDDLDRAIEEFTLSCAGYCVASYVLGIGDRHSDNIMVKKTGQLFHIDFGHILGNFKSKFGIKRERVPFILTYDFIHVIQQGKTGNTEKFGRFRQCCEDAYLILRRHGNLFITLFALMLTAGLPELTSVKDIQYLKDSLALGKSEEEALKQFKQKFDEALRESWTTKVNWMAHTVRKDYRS
T2 sequence (P27986 whole entry partner): as the sequence (P27986 whole entry partner) above

Row | IC50 (PI3Kα) [µM] | IC50 (PI3Kβ) [µM] | Compound
1 | 0.00584 | 0.1 | COC(=O)C(C)Cn1cnc2ccc(-c3cnc(OC)c(NS(=O)(=O)c4ccc(F)cc4Cl)c3)cc2c1=O (single isomer, unassigned) [R005, reference compound]
2 | 0.0104 | 0.108 | CNC[C@H](C)Cn1cnc2ccc(-c3cnc(OC)c(NS(=O)(=O)c4ccc(F)cc4Cl)c3)cc2c1=O [R009, reference compound]
3 | 0.00486 | 0.199 | COc1ncc(-c2ccc3ncn(CCCC(=O)N4CCCC4)c(=O)c3c2)cc1NS(=O)(=O)c1ccc(F)cc1Cl [WX199]
4 | 0.0037 | 0.0973 | CNC(=O)[C@@H](C)Cn1cnc2ccc(-c3cnc(OC)c(NS(=O)(=O)c4ccccc4F)c3)cc2c1=O [WX205]
5 | 0.00578 | 0.222 | CNC(=O)C(C)Cn1cnc2ccc(-c3cnc(OC)c(NS(=O)(=O)c4ccc(F)c(Cl)c4)c3)cc2c1=O (single isomer, unassigned) [WX166]
6 | 0.0132 | 0.205 | CNC(=O)[C@H](C)Cn1cnc2ccc(-c3cnc(OC)c(NS(=O)(=O)c4ccc(Cl)c(C)c4)c3)cc2c1=O [WX190]
7 | 0.00408 | 0.176 | CNC(=O)C(C)Cn1cnc2ccc(-c3cnc(OC)c(NS(=O)(=O)c4sccc4C)c3)cc2c1=O (single isomer, unassigned) [WX209]
8 | 0.00484 | 0.331 | CNC(=O)C(C)Cn1cnc2ccc(-c3cnc(OC)c(NS(=O)(=O)c4cc(C)cc(F)c4)c3)cc2c1=O (single isomer, unassigned) [WX187]
9 | 0.013 | 0.159 | CNC(=O)C(C)Cn1cnc2ccc(-c3cnc(OC)c(NS(=O)(=O)c4ccc(F)c(Cl)c4)c3)cc2c1=O (single isomer, unassigned) [WX167]
10 | 0.00147 | 0.0733 | CNC(=O)[C@H](C)Cn1cnc2ccc(-c3cnc(OC)c(NS(=O)(=O)c4cc(Cl)ccc4Cl)c3)cc2c1=O [WX182]
11 | 0.00504 | 0.216 | CNC(=O)C(C)Cn1cnc2ccc(-c3cnc(OC)c(NS(=O)(=O)c4ccc(Cl)cc4C)c3)cc2c1=O (single isomer, unassigned) [WX218]
12 | 0.00647 | 0.25 | CNC(=O)C(C)Cn1cnc2ccc(-c3cnc(OC)c(NS(=O)(=O)c4ccc(C)cc4C)c3)cc2c1=O (single isomer, unassigned) [WX092]
13 | 0.00851 | 0.175 | CNC(=O)C(C)Cn1cnc2ccc(-c3cnc(OC)c(NS(=O)(=O)c4cc(Cl)c(F)cc4F)c3)cc2c1=O (single isomer, unassigned) [WX096]
14 | 0.00347 | 0.269 | CNC(=O)C(C)Cn1cnc2ccc(-c3cnc(OC)c(NS(=O)(=O)c4ccc(Cl)cc4C)c3)cc2c1=O (single isomer, unassigned) [WX217]
15 | 0.0102 | 0.411 | CNC(=O)C(C)Cn1cnc2ccc(-c3cnc(OC)c(NS(=O)(=O)c4ccc(F)cc4C)c3)cc2c1=O (single isomer, unassigned) [WX180]
16 | 0.008 | 0.211 | CNC(=O)C(C)Cn1cnc2ccc(-c3cnc(OC)c(NS(=O)(=O)c4ccc(F)cc4)c3)cc2c1=O (single isomer, unassigned) [WX088]
17 | 0.00581 | 0.287 | CNC(=O)C(C)Cn1cnc2ccc(-c3cnc(OC)c(NS(=O)(=O)c4ccc(F)c(C#N)c4)c3)cc2c1=O (single isomer, unassigned) [WX157]
18 | 0.00085 | 0.0205 | CNC(=O)[C@@H](C)Cn1cnc2ccc(-c3cnc(OC)c(NS(=O)(=O)c4c(Cl)cccc4Cl)c3)cc2c1=O [WX207]
19 | 0.00249 | 0.119 | CNC(=O)C(C)Cn1cnc2ccc(-c3cnc(OC)c(NS(=O)(=O)c4c(Cl)cccc4Cl)c3)cc2c1=O (single isomer, unassigned) [WX208]

Row | IC50 (PI3Kα) [µM] | IC50 (PI3Kβ) [µM] | Compound
20 | 0.00377 | 0.1 | CCOC(=O)CCCn1cnc2ccc(-c3cnc(OC)c(NS(=O)(=O)c4ccc(F)cc4Cl)c3)cc2c1=O [R001, reference compound]
21 | 0.00536 | 0.276 | CNC(=O)C(C)Cn1cnc2ccc(-c3cnc(OC)c(NS(=O)(=O)c4cccc(C)c4F)c3)cc2c1=O (single isomer, unassigned) [WX219]
22 | 0.00298 | 0.152 | CNC(=O)[C@H](C)Cn1cnc2ccc(-c3cnc(OC)c(NS(=O)(=O)c4cccc(C)c4Cl)c3)cc2c1=O [WX188]
23 | 0.00356 | 0.498 | CNC(=O)C(C)Cn1cnc2ccc(-c3cnc(OC)c(NS(=O)(=O)c4ccc(F)c(C#N)c4)c3)cc2c1=O (single isomer, unassigned) [WX156]
24 | 0.0126 | 0.451 | CNC(=O)C(C)Cn1cnc2ccc(-c3cnc(OC)c(NS(=O)(=O)c4cc(F)cc(F)c4)c3)cc2c1=O (single isomer, unassigned) [WX193]
25 | 0.012 | 0.121 | CNC[C@@H](C)Cn1cnc2ccc(-c3cnc(OC)c(NS(=O)(=O)c4ccc(F)cc4Cl)c3)cc2c1=O [R008, reference compound]
26 | 0.0225 | 0.527 | CNC(=O)C(C)Cn1cnc2ccc(-c3cnc(OC)c(NS(=O)(=O)c4ccc(OC)cc4)c3)cc2c1=O (single isomer, unassigned) [WX204]
27 | 0.0128 | 0.595 | CNC(=O)[C@H](C)Cn1cnc2ccc(-c3cnc(OC)c(NS(=O)(=O)c4ccc(OC)cc4)c3)cc2c1=O [WX203]
28 | 0.00461 | 0.162 | CNC(=O)C(C)Cn1cnc2ccc(-c3cnc(OC)c(NS(=O)(=O)c4cc(Cl)ccc4C)c3)cc2c1=O (single isomer, unassigned) [WX221]
29 | 0.00558 | 0.327 | CNC(=O)C(C)Cn1cnc2ccc(-c3cnc(OC)c(NS(=O)(=O)c4ccc(F)cc4C(F)(F)F)c3)cc2c1=O (single isomer, unassigned) [WX195]
30 | 0.0112 | 2.1 | CNC(=O)C(C)Cn1cnc2ccc(-c3cnc(OC)c(NS(=O)(=O)c4ccc(C)c(Cl)c4)c3)cc2c1=O (single isomer, unassigned) [WX160]
31 | 0.0385 | 1.95 | CNC(=O)C(C)Cn1cnc2ccc(-c3cnc(OC)c(NS(=O)(=O)c4cc(C(F)(F)F)cc(C(F)(F)F)c4)c3)cc2c1=O (single isomer, unassigned) [WX104]
32 | 0.00056 | 0.11 | CNC(=O)C(C)Cn1cnc2ccc(-c3cnc(C(F)(F)F)c(NS(=O)(=O)c4ccc(F)cc4Cl)c3)cc2c1=O (centres unmarked) [WX084]
33 | 0.00892 | 0.153 | CNC(=O)C(C)Cn1cnc2ccc(-c3cnc(OC)c(NS(=O)(=O)c4ccc(C)c(Cl)c4)c3)cc2c1=O (single isomer, unassigned) [WX161]
34 | 0.00452 | 0.201 | CNC(=O)C(C)Cn1cnc2ccc(-c3cnc(OC)c(NS(=O)(=O)c4cc(C)ccc4Cl)c3)cc2c1=O (single isomer, unassigned) [WX213]
35 | 0.0101 | 0.139 | CNC(=O)C(C)Cn1cnc2ccc(-c3cnc(OC)c(NS(=O)(=O)c4cccc(C)c4F)c3)cc2c1=O (single isomer, unassigned) [WX220]
36 | 0.0102 | 0.413 | COc1ncc(-c2ccc3ncn(CC(C)(C)C(N)=O)c(=O)c3c2)cc1NS(=O)(=O)c1ccc(F)cc1Cl [WX020]
37 | 0.00814 | 0.192 | CNC(=O)[C@@H](C)Cn1cnc2ccc(-c3cnc(OC)c(NS(=O)(=O)c4cc(C)cc(Cl)c4)c3)cc2c1=O [WX184]
